# Assay results published in ChEMBL document CHEMBL1122067, “Species- or isozyme-specific enzyme inhibitors. 4. Design of a two-site inhibitor of adenylate kinase with isozyme selectivity” (J Med Chem, 1982).
# Tests used:
# [1] = Inhibitory constant of rat adenylate kinase (AK) isozymes expressed as relative maximal velocity
# [2] = Concentration for half-maximal velocity for adenylate kinase (AK) was determined
# [3] = tested on: CCCCNc1ncnc2c1ncn2C1O[C@H](COP(=O)(O)OP(=O)(O)OP(=O)(O)O)[C@@H](O)[C@H]1O; test: (§1) Concentration for half-maximal velocity for adenylate kinase (AK II) was determined
# [4] = tested on: Nc1ncnc2c1ncn2[C@@H]1O[C@H](COP(=O)(O)O)[C@@H](O)[C@H]1O; test: as §1
# [5] = tested on: O=C(CI)NCCCCCNc1ncnc2c1ncn2C1O[C@H](COP(=O)(O)OP(=O)(O)OP(=O)(O)O)[C@@H](O)[C@H]1O; test: as §1
# [6] = tested on: CC(=O)NCCCCCCCCNc1ncnc2c1ncn2C1O[C@H](COP(=O)(O)O)[C@@H](O)[C@H]1O; test: (§2) Inhibitory constant of rat adenylate kinase (AK II) isozymes expressed as relative maximal velocity
# [7] = tested on: CC(=O)NCCNc1ncnc2c1ncn2C1O[C@H](COP(=O)(O)O)[C@@H](O)[C@H]1O; test: as §2
# [8] = tested on: CCCCNc1ncnc2c1ncn2C1O[C@H](COP(=O)(O)OP(=O)(O)OP(=O)(O)O)[C@@H](O)[C@H]1O; test: as §2
# [9] = tested on: CCSc1nc2c(N)ncnc2n1[C@@H]1O[C@H](COP(=O)(O)O)[C@@H](O)[C@H]1O; test: as §2
# [10] = tested on: Nc1ncnc2c1ncn2[C@@H]1O[C@H](COP(=O)(O)O)[C@@H](O)[C@H]1O; test: as §2
# [11] = tested on: O=C(CI)NCCCCCNc1ncnc2c1ncn2C1O[C@H](COP(=O)(O)OP(=O)(O)OP(=O)(O)O)[C@@H](O)[C@H]1O; test: as §2
# [12] = Inhibitory constant of rat adenylate kinase(AK) isozymes and maximal velocity was determined
Compound,Vmax [1],Km [2],further results
CCCCSc1ncnc2c1ncn2C1O[C@H](COP(=O)(O)OP(=O)(O)OP(=O)(O)O)[C@@H](O)[C@H]1O (stereo partly specified),192%,4000 µM,–
CCCCNc1ncnc2c1ncn2C1O[C@H](COP(=O)(O)OP(=O)(O)OP(=O)(O)O)[C@@H](O)[C@H]1O (stereo partly specified),86%,2800 µM,–
O=C(CI)NCCCCCNc1ncnc2c1ncn2C1O[C@H](COP(=O)(O)OP(=O)(O)OP(=O)(O)O)[C@@H](O)[C@H]1O (stereo partly specified),0%,–,–
"Adenylate kinase 2, mitochondrial (Rattus norvegicus) (from UniProt P29410)",–,–,Km [3]: 1400 µM; Km [4]: 90 µM; Km [5]: 1000 µM; Vmax [6]: 0%; Vmax [7]: 0%; Vmax [8]: 13%; Vmax [9]: 0%; Vmax [10]: 100%; Vmax [11]: 21%
CC(=O)NCCCCCCCCNc1ncnc2c1ncn2C1O[C@H](COP(=O)(O)O)[C@@H](O)[C@H]1O (stereo partly specified),0%,–,–
CCCCN(CCCC)c1ncnc2c1ncn2C1O[C@H](COP(=O)(O)OP(=O)(O)OP(=O)(O)O)[C@@H](O)[C@H]1O (stereo partly specified),0%,–,–
CC(=O)NCCNc1ncnc2c1ncn2C1O[C@H](COP(=O)(O)O)[C@@H](O)[C@H]1O (stereo partly specified),–,–,Vmax [12]: 0%
Nc1ncnc2c1ncn2[C@@H]1O[C@H](COP(=O)(O)OP(=O)(O)OP(=O)(O)O)[C@@H](O)[C@H]1O,100%,570 µM,–
Nc1ncnc2c1nc(Sc1ccccc1)n2[C@@H]1O[C@H](COP(=O)(O)OP(=O)(O)OP(=O)(O)O)[C@@H](O)[C@H]1O,0%,–,–
CCCSc1nc2c(N)ncnc2n1[C@@H]1O[C@H](COP(=O)(O)OP(=O)(O)OP(=O)(O)O)[C@@H](O)[C@H]1O,0%,–,–
